SMILES strings stand for the structures.

The subject of one experiment is rat.
Test: not given
The conditions noted are these: comparable experimental conditions, J. Cereb. Blood Flow Metab. 1994, 14/1: 166-173; cited from earlier work.
As for `Cn1c(=O)c2[nH]cnc2n(C)c1=O` [theophylline, 1,3-dimethylxanthine], the “inhibition of ischemic nerve cell damage” value is on record as “inhibits ischemic nerve cell damage neither”.

The subject of the next experiment is C57BL/6 mice. Briefly: endotoxin (LPS)-induced lethal shock, decrease in mortality. It is filed as in vivo. The settings on record: Mus musculus, ip, 48 h, read-out: Inhibition of mortality. Here is the method:
For the testing of preparations for antishock action, various experimental animal models have been developed.
To carry out the experiments, a mixture of 10 ng of LPS from Salmonella abortus equi. and 7.5 mg of galactosamine in 0.2 ml of phosphate-buffered,physiological saline solution was administered to each animal by intravenous injection, which as a rule led to death within 6 to 9 hours. The test preparations were administered intraperitoneally one hour before LPS provocation at a dose of 100 mg/kg. The animals of the control group (n=10) instead of this received pure 0.9% saline solution as placebo. To assess the action of the preparation, the number of surviving animals was determined in the treated group (n=10) 48 hours after LPS administration and from this the percentage inhibition of mortality was determined with respect to the mortality in the control group.
Consider `CCCn1c(=O)n(CCOC)c(=O)c2[nH]cnc21` [Compound 8], for which the inhibition in vivo at 100 mg/kg came to 30%.
On the same count and under the same terms, to `CCCn1c(=O)n(CCOCC)c(=O)c2[nH]cnc21` [Compound 23] belongs 40%.

The same experiment, now with this note: Mus musculus, ip; 100 mg/kg intraperitoneally one hour before LPS/galactosamine; survivors 48 hours after LPS; versus placebo control; read-out: Inhibition of mortality.
As to `CCn1c(=O)n(COCCOC)c(=O)c2[nH]cnc21` [Compound 54], the inhibition in vivo at 100 mg/kg stood at 30%.
Still for that read-out and setting: as for `CCCCOCCn1c(=O)c2[nH]cnc2n(CC)c1=O` [Compound 44], the figure is 30%.
Still for that read-out and setting: as for `CC(C)COCn1c(=O)c2[nH]cnc2n(C)c1=O` [Compound 48, 1-Isobutoxymethyl-3-methylxanthine], the figure is 40%.
On the same count and under the same terms, as for `COCn1c(=O)c2[nH]cnc2n(C)c1=O` [Compound 1, 1-Methoxymethyl-3-methylxanthine], the figure is 80%; as for `CCCOCn1c(=O)c2[nH]cnc2n(C)c1=O` [Compound 26], 100%.
`CCC(C)OCn1c(=O)c2[nH]cnc2n(CC)c1=O` (stereo not drawn) [Compound 52, 1-sec-Butoxymethyl-3-ethylxanthine]: the inhibition in vivo at 100 mg/kg was determined as 30%.
On the same count and under the same terms, as for `CCCOCCn1c(=O)c2[nH]cnc2n(C)c1=O` [Compound 35], the figure is 30%; as for `CCCOCCn1c(=O)c2[nH]cnc2n(C2CC2)c1=O` [Compound 39], 30%; as for `CCOCn1c(=O)c2[nH]cnc2n(C)c1=O` [Compound 16], 100%.
On the same count and under the same terms, as for `CCOCn1c(=O)c2[nH]cnc2n(CC)c1=O` [Compound 17], the figure is 100%; as for `CCn1c(=O)n(COC)c(=O)c2[nH]cnc21` [Compound 2], 30%.
Same read-out and setting: as for `CCCCn1c(=O)n(COC)c(=O)c2[nH]cnc21` [Compound 4], the figure is 30%; as for `CCCOCn1c(=O)c2[nH]cnc2n(CC(C)C)c1=O` [Compound 31, 3-Isobutyl-1-propoxymethylxanthine], 30%.
Consider `CCCOCCn1c(=O)c2[nH]cnc2n(CCC)c1=O` [Compound 37, 1-(2-Propoxyethyl)-3-propylxanthine], for which the inhibition in vivo at 100 mg/kg was 80%.
Still for that read-out and setting: as for `CCCCOCn1c(=O)c2[nH]cnc2n(CC)c1=O` [Compound 41], the figure is 40%; as for `CCCOCn1c(=O)c2[nH]cnc2n(CC2CC2)c1=O` [Compound 34, 3-Cyclopropylmethyl-1-propoxymethylxanthine], 30%.
Same read-out and setting: as for `CCCOCn1c(=O)c2[nH]cnc2n(-c2ccccc2)c1=O` [Compound 32, 3-Phenyl-1-propoxymethylxanthine], the figure is 90%.
The same measure, in the same setting: to `CCCOCn1c(=O)c2[nH]cnc2n(C(C)C)c1=O` [Compound 29] belongs 50%.
As for `CC(C)COCn1c(=O)c2[nH]cnc2n(C2CC2)c1=O` [Compound 50], the inhibition in vivo at 100 mg/kg stood at 40%.
On the same count and under the same terms, to `CCOCCn1c(=O)c2[nH]cnc2n(C)c1=O` [Compound 21] belongs 40%.
Still for that read-out and setting: to `CCCCOCn1c(=O)c2[nH]cnc2n(C)c1=O` [Compound 40] belongs 40%; to `CCCOCn1c(=O)c2[nH]cnc2n(CC)c1=O` [Compound 27, 3-Ethyl-1-propoxymethylxanthine], 100%.

A further experiment relates to Mongolian gerbils.
Test: not given
The settings on record: gerbil, comparable experimental conditions; J. Cereb. Blood Flow Metab. 1987, 7/1: 74-81; cited from earlier work.
`Cn1c(=O)c2[nH]cnc2n(C)c1=O` [theophylline, 1,3-dimethylxanthine]: the “inhibition of ischemic nerve cell damage” value is “inhibits ischemic nerve cell damage neither”.

A further experiment relates to Mongolian gerbils. The experiment is described as follows: transient global ischemia, CA1 hippocampus nerve cell damage. The format is in vivo, Mongolian gerbil. The conditions noted are these: Meriones unguiculatus, ip, 168 h; Dose 5 mg/kg intraperitoneally 30 minutes after 3-minute ischemia; histopathological score after 7 days versus untreated control; read-out: Inhibition of the neuronal CA1 hippocampus damage. As for the experimental part: To carry out the experiment, which took place according to the guidelines of the German Animal Protection Act, 30 male Mongolian gerbils having a body weight of between 60 and 70 g were randomly divided into two groups each containing 15 animals. The respective test substance was administered to the animals of the first group 30 minutes after the ischemia period by intraperitoneal injection, while the animals of the second group, which served as an untreated control group, only received the same volume of the vehicle concerned. To produce the temporary forebrain ischemia, the animals were fixed in the supine position to a heated operated table, and both common carotid arteries were carefully exposed and closed for 3 minutes by means of microaneurysm clips. 7 days after the 3-minute ischemia period, the animals were decapitated under halothane anesthesia, the brains were rapidly and carefully removed, first fixed by immersion in Carnoy's solution (ethanol/chloroform/acetic acid=6/3/1) and then embedded in paraffin. Subsequently 4 to 6 μm thick coronal sections through the hippocampus were prepared approximately at the height of the bregma and these were stained with hematoxylin and eosin. After this, the extent of eosinophilic necrosis of the pyramidal cells in the CA1 region of the hippocampus was determined by light microscopy in the course of a blind experiment by means of a semiquantitative histopathological score (0=none; 1=slight; 2=medium severe; 3=severe and 4=complete necroses). The assessment variable used for the neuroprotective action was the percentage change in the mean histopathological score of the preparation group compared to that of the untreated control group.
For `CCCOCn1c(=O)c2[nH]cnc2n(CC)c1=O` [Compound 27, 3-Ethyl-1-propoxymethylxanthine], the inhibition in vivo at 5 mg/kg was 40%.

The same experiment, now with this note: Meriones unguiculatus, ip, 168 h; Dose 10 mg/kg intraperitoneally 30 minutes after 3-minute ischemia; histopathological score after 7 days versus untreated control; read-out: Inhibition of the neuronal CA1 hippocampus damage.
On to `CCn1c(=O)n(CCCOC)c(=O)c2c1ncn2Cc1ccccc1` [Compound 82], for which the inhibition in vivo at 10 mg/kg is 30%.
In the case of `CCOCCn1c(=O)c2[nH]cnc2n(C2CC2)c1=O` [Compound 25], the inhibition in vivo at 10 mg/kg came out at 24%.
Still for that read-out and setting: as for `CCn1c(=O)n(COCCOC)c(=O)c2[nH]cnc21` [Compound 54], the figure is 36%.
Same read-out and setting: to `CCCCOCCn1c(=O)c2[nH]cnc2n(CC)c1=O` [Compound 44] belongs 64%; to `CCCCn1c(=O)n(CCOc2ccccc2)c(=O)c2[nH]cnc21` [Compound 63], 27%; to `COCn1c(=O)c2[nH]cnc2n(C2CC2)c1=O` [Compound 5], 20%.
Still for that read-out and setting: as for `CCCOCn1c(=O)c2[nH]cnc2n(CCC)c1=O` [Compound 28], the figure is 30%; as for `CCCCOCCn1c(=O)c2c(ncn2Cc2ccccc2)n(CC)c1=O` [Compound 114], 27%.
Consider `CCn1c(=O)n(COc2ccccc2)c(=O)c2[nH]cnc21` [Compound 58], for which the inhibition in vivo at 10 mg/kg turned out to be 20%.
The same measure, in the same setting: as for `CCn1c(=O)n(CCOC)c(=O)c2[nH]cnc21` [Compound 7], the figure is 33%; as for `CCn1c(=O)n(CCOC)c(=O)c2c1ncn2Cc1ccccc1` [Compound 77], 33%.
Turning to `CCCOCCn1c(=O)c2[nH]cnc2n(CC)c1=O` [Compound 36], the inhibition in vivo at 10 mg/kg was 23%.
On the same count and under the same terms, as for `CCCOCCn1c(=O)c2[nH]cnc2n(C2CC2)c1=O` [Compound 39], the figure is 36%; as for `CCOCn1c(=O)c2[nH]cnc2n(CC)c1=O` [Compound 17], 66%; as for `CCCOCn1c(=O)c2c(ncn2Cc2ccccc2)n(C2CC2)c1=O` [Compound 103], 32%.
The same measure, in the same setting: as for `COCCn1c(=O)c2[nH]cnc2n(C)c1=O` [Compound 6], the figure is 20%; as for `CCCCn1c(=O)n(CCOCC)c(=O)c2[nH]cnc21` [Compound 24], 30%.
On the same count and under the same terms, as for `CCCCn1c(=O)n(COCCC)c(=O)c2[nH]cnc21` [Compound 30], the figure is 24%.
In the case of `CCn1c(=O)n(COc2ccc(Cl)cc2)c(=O)c2[nH]cnc21` [Compound 66], the inhibition in vivo at 10 mg/kg is 23%.
The same measure, in the same setting: as for `CCn1c(=O)n(CCOc2ccccc2)c(=O)c2[nH]cnc21` [Compound 61], the figure is 23%; as for `CCCOCn1c(=O)c2[nH]cnc2n(CC)c1=O` [Compound 27, 3-Ethyl-1-propoxymethylxanthine], 67%.

The record behind these values is patent US6214992A (Hoechst Aktiengesellschaft, priority 1996, dated 2001).
